According to US8450342B2, “Perharidines as CDK inhibitors” (Centre Nationale de la Recherche Scientifique, priority 2008, dated 2013):
Values joined by “and” are separate entries in the source; they are usually repeats but may differ in a detail not shown here. Equal values may be shown once. Read-outs that look alike come from different tables or passages of the source. One block for each compound: values may come before it.

Assays:
[1] = target: T1, CDK9/cyclin T (Homo sapiens, UniProt P50750); test: CDK9/cyclin T kinase assay; format: biochemical
T1 construct: made in house; host or cells: insect cells
T1 sequence (P50750 whole entry): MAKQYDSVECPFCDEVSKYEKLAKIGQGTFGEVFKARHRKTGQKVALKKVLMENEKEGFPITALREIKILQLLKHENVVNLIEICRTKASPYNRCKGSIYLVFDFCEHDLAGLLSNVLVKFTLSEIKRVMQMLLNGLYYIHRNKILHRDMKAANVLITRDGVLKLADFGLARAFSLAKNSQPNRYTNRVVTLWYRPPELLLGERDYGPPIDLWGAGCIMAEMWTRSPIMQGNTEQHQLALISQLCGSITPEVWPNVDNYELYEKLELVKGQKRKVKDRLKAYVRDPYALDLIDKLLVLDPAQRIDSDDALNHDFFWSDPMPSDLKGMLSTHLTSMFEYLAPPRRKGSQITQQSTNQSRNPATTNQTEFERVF
T1 sequence (O60563 whole entry partner): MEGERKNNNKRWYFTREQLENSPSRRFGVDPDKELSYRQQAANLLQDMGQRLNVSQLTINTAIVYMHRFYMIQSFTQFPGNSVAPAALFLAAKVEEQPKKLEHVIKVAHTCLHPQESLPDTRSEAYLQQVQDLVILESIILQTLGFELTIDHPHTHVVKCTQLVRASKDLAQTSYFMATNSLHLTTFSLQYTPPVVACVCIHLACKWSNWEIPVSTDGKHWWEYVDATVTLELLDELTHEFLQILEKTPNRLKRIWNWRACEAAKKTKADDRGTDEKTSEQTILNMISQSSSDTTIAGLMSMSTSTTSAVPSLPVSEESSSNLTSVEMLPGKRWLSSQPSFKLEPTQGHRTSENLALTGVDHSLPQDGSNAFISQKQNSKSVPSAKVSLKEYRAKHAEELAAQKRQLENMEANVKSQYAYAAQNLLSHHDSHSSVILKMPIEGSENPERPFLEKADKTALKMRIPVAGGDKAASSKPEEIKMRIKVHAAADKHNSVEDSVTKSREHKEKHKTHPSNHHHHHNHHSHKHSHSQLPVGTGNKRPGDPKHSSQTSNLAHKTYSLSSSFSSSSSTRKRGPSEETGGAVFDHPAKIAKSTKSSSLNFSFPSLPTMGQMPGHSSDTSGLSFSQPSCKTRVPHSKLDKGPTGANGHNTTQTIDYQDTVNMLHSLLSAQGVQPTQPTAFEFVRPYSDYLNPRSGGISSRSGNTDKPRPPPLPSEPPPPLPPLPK
Method: (§1) Blank values were subtracted and activities expressed in % of the maximal activity, i.e. in the absence of inhibitors. Controls were performed with appropriate dilutions of dimethylsulfoxide.

[2] = target: DYRK1A (Homo sapiens, UniProt Q13627); test: DYRK1A kinase assay; format: biochemical
Method: as §1
(§2) The compounds were tested at various concentrations in the kinase assays, as described in the Methods section.

[3] = target: T2, CDK2/cyclin A (Homo sapiens, UniProt P24941); test: CDK2/cyclin A kinase assay; format: biochemical
T2 construct: made in house; host or cells: insect cells
Method: as §1
CDK2/cyclin A (human, recombinant, expressed in insect cells) was assayed as described for CDK1/cyclin B.

[4] = target: T3, CDK5/p25 (Homo sapiens, UniProt Q00535); test: CDK5/p25 kinase assay; format: biochemical
T3 construct: made in house
T3 sequence (Q00535 whole entry): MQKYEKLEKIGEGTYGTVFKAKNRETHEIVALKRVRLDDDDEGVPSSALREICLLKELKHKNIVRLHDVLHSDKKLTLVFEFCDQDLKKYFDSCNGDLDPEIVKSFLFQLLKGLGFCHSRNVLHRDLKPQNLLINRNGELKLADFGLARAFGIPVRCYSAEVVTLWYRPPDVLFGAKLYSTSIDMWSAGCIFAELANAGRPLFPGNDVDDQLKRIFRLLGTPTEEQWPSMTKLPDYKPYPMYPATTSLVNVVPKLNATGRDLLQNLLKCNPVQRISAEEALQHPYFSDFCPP
T3 sequence (Q15078 99-307 partner limits assumed): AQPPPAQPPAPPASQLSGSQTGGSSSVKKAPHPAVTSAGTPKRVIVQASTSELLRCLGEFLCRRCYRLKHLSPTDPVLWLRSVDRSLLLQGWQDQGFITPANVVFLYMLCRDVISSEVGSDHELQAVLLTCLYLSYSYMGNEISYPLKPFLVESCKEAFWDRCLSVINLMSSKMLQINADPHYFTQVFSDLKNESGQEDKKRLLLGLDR
Method: (§3) Controls were performed with appropriate dilutions of dimethylsulfoxide.
(§4) ATP (3,000 Ci/mmol; 10 mCi/ml) in a final volume of 30 μl. After 30 min. incubation at 30° C., 25 μl aliquots of supernatant were spotted onto 2.5×3 cm pieces of Whatman P81 phosphocellulose paper, and, 20 sec. later, the filters were washed five times (for at least 5 min. each time) in a solution of 10 ml phosphoric acid/liter of water. The wet filters were counted in the presence of 1 ml ACS (Amersham) scintillation fluid.

[5] = target: GSK-3α/β; test: GSK-3α/β kinase assay; format: biochemical, porcine
Method: as §1

[6] = tested on: LS 174T (Oncodesign); test: Cell survival, LS 174T (Oncodesign); format: cell-based; conditions: Homo sapiens, LS174T; Table 6
[7] = target: Erk2 (Homo sapiens, UniProt P28482); test: Erk2 kinase assay; format: biochemical; conditions: Table 5
Erk2 (Homo sapiens, UniProt P28482), sequence (P28482 whole entry, species assumed): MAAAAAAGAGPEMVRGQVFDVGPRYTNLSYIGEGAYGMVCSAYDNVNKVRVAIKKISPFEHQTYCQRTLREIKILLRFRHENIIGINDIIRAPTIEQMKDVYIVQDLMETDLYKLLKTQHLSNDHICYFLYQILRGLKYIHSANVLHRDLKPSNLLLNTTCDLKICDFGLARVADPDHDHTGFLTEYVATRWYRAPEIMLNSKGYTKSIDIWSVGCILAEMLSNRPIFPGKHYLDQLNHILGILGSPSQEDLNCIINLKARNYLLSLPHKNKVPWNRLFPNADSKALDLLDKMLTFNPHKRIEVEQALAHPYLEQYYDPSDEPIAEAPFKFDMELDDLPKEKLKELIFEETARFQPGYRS
Method: as §1, §2

[8] = tested on: B2-CLL lymphocytes; test: Survival / cell death of B2-CLL lymphocytes from patients; format: cell-based, human; conditions: Homo sapiens, Lymphocyte
Method: Cell viability was determined by measuring the reduction of 3-(4,5-dimethylthiazol-2-yl)-5-(3-carboxymethoxyphenyl)-2-(4-sulfophenyl)-2/H-tetrazolium (MTS). Cell death was determined by measuring the level of lactate dehydrogenase activity (LDH) released upon cell lysis.

[9] = target: CK1δ/ε; test: CK1 kinase assay; format: biochemical, porcine
Method: as §1

[10] = tested on: HCT116 (Oncodesign); test: Cell survival, HCT116 (Oncodesign); format: cell-based; conditions: Homo sapiens, HCT-116; Table 6
[11] = target: CDK1/cyclin B; test: CDK1/cyclin B kinase assay; format: biochemical, starfish
Method: as §3, §4

[12] = target: CDK2/cyclin E (Homo sapiens, UniProt P24941); test: CDK2/cyclin E kinase assay; format: biochemical; conditions: Table 5
Method: as §3, §2

[13] = tested on: SH-SY5Y human neuroblastoma cells; test: Cell survival (MTS assay), SH-SY5Y; format: cell-based
Method: (§5) SH-SY5Y human neuroblastoma cells were grown in DMEM medium (Invitrogen, Cergy Pontoise, France). […] Human foreskin primary fibroblasts (kindly provided by Dr. Gilles Ponzio) were grown in DMEM supplemented with 2 mM L-glutamine and 20 mM HEPES. All the media were supplemented with antibiotics (penicillin-streptomycin) from Lonza and 10% volume of FCS from Invitrogen. Cells were cultured at 37° C. with 5% CO2. Drug treatments were performed on exponentially growing cultures at the indicated time and concentrations. Control experiments were carried out using appropriate dilutions of DMSO. MDCK cell-lines were used to test compounds PKD.

[14] = tested on: HEK 293 human embryonic kidney cell line; test: Cell survival (MTS assay), HEK293; format: cell-based; conditions: HEK293, Table 4, MTS assay
Method: as §5

[15] = tested on: RNA polymerase II Ser2 phosphorylation; test: Western blot, RNA polymerase II Ser2 phosphorylation in SH-SY5Y; format: cell-based, human; conditions: FIG. 10
Method: SH-SY5Y human neuroblastoma cells were grown in DMEM medium (Invitrogen, Cergy Pontoise, France). The HEK 293 human embryonic kidney cell line was grown in MEM medium from Invitrogen. Human foreskin primary fibroblasts (kindly provided by Dr. Gilles Ponzio) were grown in DMEM supplemented with 2 mM L-glutamine and 20 mM HEPES. All the media were supplemented with antibiotics (penicillin-streptomycin) from Lonza and 10% volume of FCS from Invitrogen. Cells were cultured at 37° C. with 5% CO2. Drug treatments were performed on exponentially growing cultures at the indicated time and concentrations. Control experiments were carried out using appropriate dilutions of DMSO. MDCK cell-lines were used to test compounds PKD.
Cells were resuspended and lysed for 30 minutes at 4° C. in Homogenization Buffer [60 mM β-glycerophosphate, 15 mM p-nitrophenyl phosphate, 25 mM MOPS (pH 7.2), 15 mM EGTA, 15 mM MgCl2, 1 mM dithiothreitol, 1 mM sodium vanadate, 1 mM NaF, 1 mM phenylphosphate, 0.1% Nonidet P-40 and protease inhibitor cocktail] and sonicated. After centrifugation (14000 rpm for 15 minutes at 4° C.), the protein concentration was determined in the supernatants by the Bradford protein assay (Bio-Rad).
Whole cell extracts were prepared in buffer containing 100 mM Tris/HCl (pH, 6.8), 1 mM EDTA, 2% SDS and protease inhibitor cocktail. Following heat denaturation for 5 minutes, proteins were separated on 10% or 7% NuPAGE pre-cast Bis-Tris or Tris-Acetate polyacrylamide mini gels (Invitrogen) with MOPS SDS (all but cytochrome C, RNA polymerase II and phospho-Ser2—RNA polymerase II Western blots), MES SDS (cytochrome C), or Tris-Acetate SDS (RNA polymerase II and phospho-Ser2—RNA polymerase II) running buffer depending on protein size. Proteins were transferred to 0.45 μm nitrocellulose filters (Schleicher and Schuell). These were blocked with 5% low fat milk in Tris-Buffered Saline—Tween-20, incubated for 1 h with antibodies (anti-actin: 1:2000) or overnight at 4° C. (cytochome C: 1:500), Rb (1:500), phosphor-Rb (1:500), phospho-Thr320-PP1α (1:1000), RNA polymerase II (1:500), phosphor-Ser2-RNA polymerase II (1:500), Mcl-1 (1:500), caspase-9 (1:1000) and analyzed by Enhanced Chemiluminescence (ECL, Amersham).

[16] = target: T4, Erk2 (Sus scrofa, UniProt A0A8W4FG96); test: Competition on agarose beads with porcine brain lysate (silver staining assay), Erk2; format: binding; conditions: FIG. 1, 500 μM or 100 μM
T4 construct: 1000 μg of porcine brain lysate; from tissue; host or cells: porcine brain lysate
T4 sequence (A0A8W4FG96 1-358): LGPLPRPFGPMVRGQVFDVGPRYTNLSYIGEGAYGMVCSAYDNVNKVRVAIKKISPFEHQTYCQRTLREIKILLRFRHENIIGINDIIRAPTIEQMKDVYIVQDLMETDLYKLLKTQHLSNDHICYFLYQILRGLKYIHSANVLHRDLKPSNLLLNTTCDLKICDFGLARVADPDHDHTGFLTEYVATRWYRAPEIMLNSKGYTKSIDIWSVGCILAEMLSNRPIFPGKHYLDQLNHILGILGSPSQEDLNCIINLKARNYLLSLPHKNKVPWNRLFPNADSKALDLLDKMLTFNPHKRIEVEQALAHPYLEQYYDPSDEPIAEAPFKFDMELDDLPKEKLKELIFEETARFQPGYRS

[17] = target: T5, pyridoxal kinase (PDXK) (Sus scrofa, UniProt O46560); test: Competition on agarose beads with porcine brain lysate (silver staining assay), pyridoxal kinase; format: binding; conditions: FIG. 1, 500 μM or 100 μM
T5 construct: 1000 μg of porcine brain lysate; from tissue; host or cells: porcine brain lysate
T5 sequence (O46560 whole entry): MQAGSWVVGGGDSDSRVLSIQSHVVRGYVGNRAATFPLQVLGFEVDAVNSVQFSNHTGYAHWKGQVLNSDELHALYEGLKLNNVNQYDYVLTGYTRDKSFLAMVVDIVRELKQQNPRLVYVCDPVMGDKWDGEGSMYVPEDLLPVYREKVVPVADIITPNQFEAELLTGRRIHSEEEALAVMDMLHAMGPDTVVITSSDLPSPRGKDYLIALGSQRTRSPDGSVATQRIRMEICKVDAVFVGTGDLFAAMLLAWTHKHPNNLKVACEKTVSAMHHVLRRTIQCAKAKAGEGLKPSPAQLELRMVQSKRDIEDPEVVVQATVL
Description: Indeed, the interaction of the compounds of the invention with pyridoxal kinase has been determined by the following method: (silver staining assay)

[18] = read-out: Inhibition of DYRK1A, IC50
[19] = read-out: Inhibition of CDK5/p25, IC50
[20] = read-out: Inhibition of GSK3beta, IC50
[21] = read-out: Inhibition of CK1, IC50
[22] = read-out: Inhibition of CDK1/cyclin B, IC50
[23] = read-out: Inhibition of the tumor cell-line SHSY-5Y, IC50
[24] = Table 4, MTS assay, read-out: SH-SY5Y cell survival

IC50 ([1]; Table 5, read-out: CDK9/cyclin T): 120 nM | IC50 ([2]; Table 5, read-out: DYRK1A): 2800 nM | IC50 ([3]; Table 5, read-out: CDK2/cyclin A): 150 nM | IC50 ([4]; Table 5, read-out: CDK5/p25): 200 nM | IC50 ([5]; Table 5, read-out: GSK-3α/β): 24500 nM | IC50 [7]: 9000 nM | IC50 ([9]; Table 5, read-out: CK1): 1900 nM | IC50 ([11]; Table 5, read-out: CDK1/cyclin B): 270 nM | IC50 [12]: 100 nM
Compound: CC[C@@H](CO)Nc1cc(NCc2ccc(-c3ccccn3)cc2)c2ncn(C(C)C)c2n1 [(S)-perharidine D, (S)-7-[4-(2-Pyridyl)-benzylaminol]-5-[(2-butyl-1ol)amino]-3-iso-propylimidazo[4,5-b]pyridine]
IC50 [6]: 99 nM | IC50 ([8]; LLC B-cells, read-out: Cell death induction): 130 nM | IC50 ([8]; Table 6, read-out: Chronic Lymphocytic Leukemia cell survival): 130 nM | IC50 [10]: 300 nM | IC50 ([13]; Table 6, MTS assay, read-out: SH-SY5Y cell survival): 660 nM

Compound: CC[C@@H](N)COc1cc(NCc2ccc(-c3ccccc3)cc2)c2ncn(C(C)C)c2n1 [In, (R)-5-(2-aminobutoxy)-3-isopropyl-N-[(4-phenylphenyl)methyl]imidazo[4,5-b]pyridine-7-amine]
IC50 [2, 18]: 4000 nM | IC50 [4, 19]: 550 nM | IC50 [5, 20]: 7000 nM | IC50 [9, 21]: 120 nM

IC50 [4, 19]: 340 nM and 350 nM | IC50 [9, 21]: 280 nM
Compound: CC(C)n1cnc2c(NCc3ccc(-c4ccccn4)cc3)cc(NC(CO)CO)nc21 [Perharidine E, 3-Iso-Propyl-5-(1,3-dihydroxypropylamino)-7-[4-(2-pyridyl)-benzylamino]-imidazo[4,5-b]pyridine]

IC50 ([1]; read-out: Inhibition of CDK9/cyclin T, IC50): 140 nM | IC50 [4, 19]: 180 nM | IC50 [5, 20]: 13000 nM | IC50 [9, 21]: 530 nM | IC50 [11, 22]: 150 nM
Compound: CC(C)n1cnc2c(NCc3ccc(-c4ccccn4)cc3)cc(NC(CO)[C@@H](C)O)nc21 (stereo in doubt) [Ij, (R,R)-2-[[3-isopropyl-7-[[4-(2-pyridyl)phenyl]methylamino]imidazo[4,5-b]pyridin-5-yl]amino]butane-1,3-diol]
IC50 [13, 23]: 150 nM

Compound: CC[C@H](N)COc1cc(NCc2ccc(-c3ccccc3)cc2)c2ncn(C(C)C)c2n1 [Ip, (S)-5-(2-aminobutoxy)-3-isopropyl-N-[(4-phenylphenyl)methyl]imidazo[4,5-b]pyridin-7-amine]
IC50 [2, 18]: 3300 nM | IC50 [5, 20]: 7000 nM | IC50 [9, 21]: 220 nM

IC50 ([4]; Table 4, read-out: CDK5): 3800 nM | IC50 ([5]; Table 4, read-out: GSK3): > 10000 nM | IC50 ([9]; Table 4, read-out: CK1): 8000 nM | IC50 ([11]; Table 4, read-out: CDK1): 4000 nM
Compound: CC(C)n1cnc2c(NCc3ccccc3)cc(N)nc21 [Formula If]
IC50 [14]: > 100000 nM | IC50 [13, 24]: > 100000 nM

IC50 [4, 19]: 810 nM | IC50 [9, 21]: 1200 nM
Compound: CC[C@H](CO)Nc1cc(NCc2ccc(-c3ccccc3)cc2)c2ncn(C(C)C)c2n1 [Im, (R) 2-[[3-isopropyl-7-[(4-phenylphenyl)methylamino]imidazo[4,5-b]pyridin-5-yl]amino]butan-1-ol]

Compound: CC[C@H](CO)Nc1nc(NCc2ccccc2)c2ncn(C(C)C)c2n1 [(R)-Roscovitine, Roscovitine]
total RNA pol II [15]: essentially constant | competitor effect for Erk2 [16]: exhibited a competitor effect | competitor effect for pyridoxal kinase (PDXK) [17]: exhibited a competitor effect

IC50 ([4]; Table 4, read-out: CDK5): 630 nM | IC50 ([5]; Table 4, read-out: GSK3): > 10000 nM | IC50 ([9]; Table 4, read-out: CK1): 3000 nM | IC50 ([11]; Table 4, read-out: CDK1): 530 nM
Compound: CC(C)n1cnc2c(NCc3ccccc3)cc(NC(=O)C(F)(F)F)nc21 [Formula Ig]
IC50 [14]: > 100000 nM | IC50 [13, 24]: > 100000 nM

IC50 [2, 18]: 4500 nM | IC50 ([4]; unit inferred, read-out: Inhibition of CDK5/p25, IC50): 600 nM | IC50 [5, 20]: > 10000 nM | IC50 [9, 21]: 2000 nM
Compound: CC[C@@H](CO)Nc1cc(NCc2ccc(-c3ccccc3)cc2)c2ncn(C(C)C)c2n1 [Il, (2S)-2-[[3-isopropyl-7-[(4-phenylphenyl)methylamino]imidazo[4,5-b]pyridin-5-yl]amino]butan-1-ol]

IC50 ([3]; unit inferred, read-out: Inhibition of CDK2/cyclin A, IC50): 120 nM | IC50 [4, 19]: 170 nM | IC50 [5, 20]: > 10000 nM | IC50 [9, 21]: 380 nM | IC50 [11, 22]: 200 nM
Compound: CC(C)n1cnc2c(NCc3ccc(-c4ccccn4)cc3)cc(NC[C@H](O)CO)nc21 [Ik, (2S)-3-[[3-isopropyl-7-[[4-(2-pyridyl)phenyl]methylamino]imidazo[4,5-b]pyridin-5-yl]amino]propane-1,2-diol]
IC50 [13, 23]: 180 nM

IC50 ([4]; Table 4, read-out: CDK5): 800 nM | IC50 ([5]; Table 4, read-out: GSK3): > 10000 nM | IC50 ([9]; Table 4, read-out: CK1): 1000 nM | IC50 ([11]; Table 4, read-out: CDK1): 1000 nM
Compound: CC(C)n1cnc2c(NCc3ccccc3)cc([N+](=O)[O-])nc21 [Formula Ie]
IC50 [14]: 46000 nM | IC50 [13, 24]: 74000 nM
